Assay results reported in the supplement of paper PMC10307832.

Legend:
Experiment in all cases: relative viability (nuclei count vs DMSO), 5 days (fraction); higher = more cells survive
VE-821 + Trametinib = compound: CS(=O)(=O)c1ccc(-c2cnc(N)c(C(=O)Nc3ccccc3)n2)cc1 [VE-821] + CC(=O)Nc1cccc(-n2c(=O)n(C3CC3)c(=O)c3c(Nc4ccc(I)cc4F)n(C)c(=O)c(C)c32)c1 [Trametinib] (partner 0.02 µM)
In short: (§1)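 Cells from lung cancer lines were seeded into 1536-well plates and, one day later, dosed by pin tool. Treatments were either a single drug or a fixed dose of an anchor drug with five library-drug doses (not always all listed) in √10 steps. After 5 days, nuclei were stained in a one-step fixation (final 0.05% Triton X-100, 1% formaldehyde, 1 ug/ml Hoechst) and counted on 4× images, and relative viability is the treated-to-vehicle nuclei ratio, as the median of duplicate plates.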

VE-821 + Pemetrexed = compound: CS(=O)(=O)c1ccc(-c2cnc(N)c(C(=O)Nc3ccccc3)n2)cc1 [VE-821] + Nc1nc2[nH]cc(CCc3ccc(C(=O)N[C@@H](CCC(=O)O)C(=O)O)cc3)c2c(=O)[nH]1 [Pemetrexed] (partner 0.2 µM)
In short: as §1

Ruxolitinib + Alpelisib = compound: N#CC[C@H](C1CCCC1)n1cc(-c2ncnc3[nH]ccc23)cn1 [Ruxolitinib] + Cc1nc(NC(=O)N2CCC[C@H]2C(N)=O)sc1-c1ccnc(C(C)(C)C(F)(F)F)c1 [Alpelisib] (partner 2 µM)
In short: as §1

Ruxolitinib + Decitabine = compound: N#CC[C@H](C1CCCC1)n1cc(-c2ncnc3[nH]ccc23)cn1 [Ruxolitinib] + Nc1ncn([C@H]2C[C@H](O)[C@@H](CO)O2)c(=O)n1 [Decitabine] (partner 2 µM)
In short: as §1

Cell Line	relative viability (VE-821 + Trametinib; first compound 0.08 µM)	relative viability (VE-821 + Trametinib; first compound 0.253 µM)	relative viability (VE-821 + Trametinib; first compound 0.8 µM)	relative viability (VE-821 + Trametinib; first compound 2.53 µM)	relative viability (VE-821 + Trametinib; first compound 8 µM)	relative viability (VE-821 + Pemetrexed; first compound 0.08 µM)	relative viability (VE-821 + Pemetrexed; first compound 0.253 µM)	relative viability (VE-821 + Pemetrexed; first compound 0.8 µM)	relative viability (VE-821 + Pemetrexed; first compound 2.53 µM)	relative viability (VE-821 + Pemetrexed; first compound 8 µM)	relative viability (Ruxolitinib + Alpelisib; first compound 0.08 µM)	relative viability (Ruxolitinib + Alpelisib; first compound 0.253 µM)	relative viability (Ruxolitinib + Alpelisib; first compound 0.8 µM)	relative viability (Ruxolitinib + Alpelisib; first compound 2.53 µM)	relative viability (Ruxolitinib + Alpelisib; first compound 8 µM)	relative viability (Ruxolitinib + Decitabine; first compound 0.08 µM)	relative viability (Ruxolitinib + Decitabine; first compound 0.253 µM)	relative viability (Ruxolitinib + Decitabine; first compound 0.8 µM)	relative viability (Ruxolitinib + Decitabine; first compound 2.53 µM)	relative viability (Ruxolitinib + Decitabine; first compound 8 µM)
NCI-H1666	0.833	0.809	0.867	0.718	0.85	0.941	0.841	0.779	0.558	0.571	0.973	0.821	1.06	0.823	1	0.601	0.666	0.753	0.678	0.721
EPLC-272H	0.291	0.28	0.273	0.289	0.27	0.347	0.36	0.218	0.141	0.0907	0.841	0.903	1.07	1.06	1.01	0.408	0.367	0.439	0.414	0.36
NCI-H838	0.568	0.472	0.544	0.648	0.345	0.259	0.264	0.21	0.17	0.159	0.848	0.973	0.823	0.618	0.31	0.466	0.437	0.489	0.351	0.28
NCI-H2087	0.218	0.275	0.177	0.222	0.234	0.667	0.634	0.65	0.679	0.67	0.951	0.832	1.13	0.769	0.954	0.316		0.35	0.189	0.286
LC-2-ad	0.985	0.886	0.879	0.912	0.956	0.265	0.286	0.272	0.264	0.24	0.895	0.848	0.934	0.734	0.567	0.776	0.936	0.784	0.694	0.604
NCI-H2405	0.643	0.628	0.53	0.699	0.546	1.09	1.04	1.05	1.12	0.884		0.715	0.984	0.416	0.465	0.765	0.786	0.792	0.682	0.424
HCC-366	0.38	0.381	0.293	0.13	0.0642	0.159	0.127	0.144	0.0815	0.06	0.349	0.322	0.366	0.36	0.46	0.361	0.321	0.318	0.24	0.275
NCI-H3122	0.219	0.216	0.235	0.228	0.265	0.202	0.19	0.176	0.159	0.128	0.807	0.786	0.851	0.556	0.617	0.47	0.387	0.429	0.302	0.389
LU99A	0.532	0.541	0.572	0.528	0.29	0.191	0.156	0.16	0.125	0.113	0.532	0.456	0.523	0.523	0.412	0.918	0.938	0.886	0.639	0.836
NCI-H1650	0.869	0.453	0.668	0.586	0.402	0.344	0.355	0.289	0.386	0.307						0.321	0.338	0.438	0.418	0.442
EMC-BAC-2	0.925	0.856	0.984	1.02	0.966	0.45	0.391	0.427	0.371	0.308	0.725	0.72	0.742	0.637	0.568	0.915	0.916	1.14	0.921	0.851
HCC-78	0.816	0.646	0.689	0.855	0.917	0.875	0.904	0.903	0.853	0.89	0.289	0.249	0.308	0.277	0.337	0.598	0.607	0.677	0.527	0.661
NCI-H1734	0.718	0.732	0.651	0.723	0.587	0.413	0.391	0.374	0.351	0.297	0.68	0.579	0.798	0.623	0.667	0.512	0.485	0.613	0.423	0.494
COR-L23	0.658	0.658	0.587	0.759	0.535	0.198	0.211	0.196	0.197	0.16	0.854	0.827	0.821	0.731	0.502	0.493	0.429	0.521	0.367	0.322
RERF-LC-KJ	0.935	0.788	0.704	0.81	0.69	0.495	0.504	0.46	0.457	0.376	0.811	0.775	0.892	0.877	0.771	0.689	0.812	0.791	0.719	0.589
NCI-H1437	0.533	0.445	0.498	0.566	0.376	0.331	0.316	0.281	0.173	0.187	0.871	0.807	1.01	1.03	0.795	0.716	0.623	0.631	0.634	0.603
NCI-H1915	0.331	0.288	0.281	0.349	0.303	0.499	0.432	0.344	0.311	0.23	1.06	1.04	1.11	1.04	0.966	0.262	0.278	0.275	0.237	0.233
SK-MES-1	0.609	0.516	0.462	0.471	0.455	0.98	0.934	0.838	0.612	0.352	0.984	0.878	0.986	0.722	0.795	0.45	0.362	0.429	0.319	0.358
NCI-H522	0.859	0.753	0.65	0.769	0.717	1.28	1	0.909	1.16	0.778						0.694	0.695	0.669	0.701	0.654
NCI-H1299											1.05	1.08	1.05	0.949	0.996					

Cell Line	relative viability (VE-821 + Trametinib; first compound 0.08 µM)	relative viability (VE-821 + Trametinib; first compound 0.253 µM)	relative viability (VE-821 + Trametinib; first compound 0.8 µM)	relative viability (VE-821 + Trametinib; first compound 2.53 µM)	relative viability (VE-821 + Trametinib; first compound 8 µM)	relative viability (VE-821 + Pemetrexed; first compound 0.08 µM)	relative viability (VE-821 + Pemetrexed; first compound 0.253 µM)	relative viability (VE-821 + Pemetrexed; first compound 0.8 µM)	relative viability (VE-821 + Pemetrexed; first compound 2.53 µM)	relative viability (VE-821 + Pemetrexed; first compound 8 µM)	relative viability (Ruxolitinib + Alpelisib; first compound 0.08 µM)	relative viability (Ruxolitinib + Alpelisib; first compound 0.253 µM)	relative viability (Ruxolitinib + Alpelisib; first compound 0.8 µM)	relative viability (Ruxolitinib + Alpelisib; first compound 2.53 µM)	relative viability (Ruxolitinib + Alpelisib; first compound 8 µM)	relative viability (Ruxolitinib + Decitabine; first compound 0.08 µM)	relative viability (Ruxolitinib + Decitabine; first compound 0.253 µM)	relative viability (Ruxolitinib + Decitabine; first compound 0.8 µM)	relative viability (Ruxolitinib + Decitabine; first compound 2.53 µM)	relative viability (Ruxolitinib + Decitabine; first compound 8 µM)
NCI-H1651	0.876	0.799	0.733	0.808	0.821	0.576	0.616	0.625	0.554	0.545	0.941	0.875	1.08	1.09	0.968	0.514	0.604	0.624	0.438	0.655
NCI-H661	0.703	0.536	0.563	0.658	0.52	0.979	0.923	0.84	0.744	0.571	0.406	0.623	0.579	0.583	0.252	0.547	0.548	0.588	0.484	0.505
NCI-H1944	0.401	0.445	0.432	0.399	0.364	0.693	0.695	0.495	0.384	0.172	0.777	0.689	0.863	0.782	0.753	0.445	0.394	0.467	0.393	0.409
NCI-H2228	0.51	0.645	0.354	0.644	0.382	0.333	0.373	0.301	0.253	0.156	0.667	0.56	0.773	0.46	0.361					
NCI-H1792	0.505	0.464	0.361	0.65	0.492	1.19	0.59	0.865	0.996	0.568	0.652	0.687	0.651	0.515	0.714	0.516	0.544	0.602	0.425	0.476
HCC-44	1.11	1.03	1.12	1.13	0.961	0.613	0.649	0.596	0.479	0.447	0.793	0.724	0.796	0.602	0.41	0.931	0.971	0.895	0.877	0.83
NCI-H358	0.143	0.139	0.139	0.138	0.134	0.177	0.199	0.177	0.166	0.122	0.787	0.913	0.867	0.65	0.554	0.226	0.202	0.213	0.169	0.194
EBC-1											0.833	0.889	0.997	0.876	0.777					
ChaGo-K-1	0.981	0.932	0.866	0.969	0.851	0.28	0.333	0.274	0.261	0.253						0.515	0.529	0.52	0.447	0.478
NCI-H2342	0.804	0.907	0.8	0.849	0.492	0.792	0.777	0.804	0.736	0.667						0.706	0.665	0.777	0.783	0.667
Calu-6											1.02	1.03	1.09	0.851	0.673					
NCI-H1703											0.316	0.343	0.382	0.19	0.283					
NCI-H1563						0.778	0.7	0.613	0.761	0.481	0.923	0.813	1	0.895	0.818					
CAL-12T	0.372	0.355	0.325	0.322	0.325	1.22	1.14	1.04	1.1	0.759	1.26	1.31	1.25	1.05	0.78					
IA-LM											0.676	0.849	0.959	0.584	0.679					
SW 900	0.675	0.792	0.687	0.706	0.403	0.494	0.504	0.461	0.46	0.221						0.426	0.495	0.475	0.445	0.41
NCI-H727	0.398	0.432	0.416	0.422	0.396						0.604	0.597	0.874	0.749	0.338	0.578	0.901	0.936	0.841	0.842
ABC-1											1.08	1.09	1.17	1.03	0.855		1.03	1.38	1.21	1.21
NCI-H1648	0.581		0.394	0.729	0.575	0.977		0.569	0.63	0.611						0.472	0.558	0.588	0.592	0.861
A549											0.775	0.708	0.841	0.574	0.495	0.215	0.254	0.322	0.197	0.28
